Experimental data as given in patent US20040147607A1, “Stable gabapentin having pH within a controlled range” (priority 2000, published 2004).

Tests used:
[1] = pH of purified gabapentin / gabapentin tablets; format: physicochemical
[2] = Storage stability: conversion of gabapentin to its corresponding lactam (HPLC vs. standard); format: physicochemical; settings: gabapentin pure; for conversion of gabapentin to its corresponding lactam: after a year of storage at 25° C. and 60% relative humidity
Experimental: Gabapentin purified according to these procedures contains less than 0.5% lactam as measured by HPLC vs. standard. After a year of storage at 25° C. and 60% relative humidity, the conversion of gabapentin to its corresponding lactam is measured not to exceed 0.2% by weight of gabapentin.

cardiozole cramp = settings: in animals; U.S. Pat. No. 4,024,175; cited from earlier work
[3] = according to Augart (U.S. Pat. No. 6,054,482); cited from earlier work
[4] = gabapentin pure after the reslurry in methanol (Examples 2, 3: basic agent added)
[5] = gabapentin pure after crystallization in methanol (Examples 11-16: basic agent added)

SMILES | conversion of gabapentin to its corresponding lactam [2] | pH [1, 5] | other results
NCC1(CC(=O)O)CCCCC1 [Example 1, 1-(aminomethyl)-1-cyclohexaneacetic acid] | ≤ 0.2 % by weight of gabapentin | – | pH [1, 4]: 6.84-7.04
NCC1(CC(=O)O)CCCCC1 [Example 2, 1-(aminomethyl)-1-cyclohexaneacetic acid] | ≤ 0.2 % by weight of gabapentin | – | pH [1, 4]: 7.15
NCC1(CC(=O)O)CCCCC1 [Example 3, 1-(aminomethyl)-1-cyclohexaneacetic acid] | ≤ 0.2 % by weight of gabapentin | – | pH [1, 4]: 6.8
NCC1(CC(=O)O)CCCCC1 [Example 4, 1-(aminomethyl)-1-cyclohexaneacetic acid] | ≤ 0.2 % by weight of gabapentin | – | –
NCC1(CC(=O)O)CCCCC1 [Example 11, 1-(aminomethyl)-1-cyclohexaneacetic acid] | ≤ 0.2 % by weight of gabapentin | 7.25 | –
NCC1(CC(=O)O)CCCCC1 [Example 12, 1-(aminomethyl)-1-cyclohexaneacetic acid] | ≤ 0.2 % by weight of gabapentin | 7.08 | amount of lactam after storage ([2]; after a year of storage at 55° C. and 50% relative humidity): less than 0.5 % by weight
NCC1(CC(=O)O)CCCCC1 [Example 13, 1-(aminomethyl)-1-cyclohexaneacetic acid] | ≤ 0.2 % by weight of gabapentin | 7.28 | amount of lactam after storage ([2]; after a year of storage at 25° C. and 50% relative humidity): less than 0.5 % by weight
NCC1(CC(=O)O)CCCCC1 [Example 14, 1-(aminomethyl)-1-cyclohexaneacetic acid] | – | 7.03 | –
NCC1(CC(=O)O)CCCCC1 [Example 15, 1-(aminomethyl)-1-cyclohexaneacetic acid] | – | 7.22 | –
NCC1(CC(=O)O)CCCCC1 [Example 16, 1-(aminomethyl)-1-cyclohexaneacetic acid] | – | 7.17 | –
NCC1(CC(=O)O)CCCCC1 [gabapentin, 1-(aminomethyl)-1-cyclohexaneacetic acid] | – | – | protective effect against cardiozole cramp (cardiozole cramp): protective effect against cardiozole cramp
O=C1CC2(CCCCC2)CN1 [lactam] | – | – | toxicity compared with gabapentin [3]: higher toxicity than gabapentin
